Assay results reported in US20230322724A1, “HETEROCYCLIC COMPOUNDS AS CBP/EP300 BROMODOMAIN INHIBITORS” (AURIGENE ONCOLOGY LIMITED, priority 2020, published 2023).

These compounds were tested against T1, recombinant BRD4 FL bromodomain (Homo sapiens, UniProt O60885) (assay: BRD4 FL TR-FRET displacement assay). Conditions: BRD4 FL, compound at 10 μM.
T1 construct: fused on or other part: 6xHis tag, inferred from detection with Mab ANTI 6HIS-XL665
Type: binding
Method: The potency of compounds to inhibit BRD4 FL enzyme was tested in a TR-FRET displacement assay using recombinant BRD4 FL bromodomain obtained In-house. The assay buffer was 50 mM HEPES (pH 7.5), 50 mM NaCl, 500 μM CHAPS. 10 nM of BRD4 FL & 300 nM of Biotinylated Acetyl histone H4 (Lys 5, 8, 12, 16) (Millipore, USA) was incubated at room temperature for 30 minutes, the reaction was initiated by adding the pre-incubated enzyme ligand mixture to the test compounds. After 30 min incubation, the reaction was stopped by the addition of stop mix containing 1 nM of Europium Streptavidin cryptate (Cisbio, USA) and 5 nM of Mab ANTI 6HIS-XL665 (Cisbio, USA) dilutes in assay buffer containing 2.4M Potassium Fluoride. Fluorescence emission of the samples at 665 and 615 nm were measured at an excitation of 340 nm and their ratio was plotted against the compound concentrations to generate dose-response curve. The percent inhibition of the test compounds is calculated using the ratio of enzyme activity controls.
Selected compounds of the present invention were screened in the above-mentioned assay procedures and IC50 values were determined by fitting the dose-response data to sigmoidal curve fitting equation using Graph pad prism software V7.

| % Inhibition (10 μM) | Structure (SMILES) |
| --- | --- |
| 45% | COc1cc(N2CCCc3ccc(S(=O)(=O)NC(C)=O)cc32)c2cc(C)c(=O)n(C)c2c1 [Example 199, N-((T-methoxy-1′,3′-dimethyl-2′-oxo-1′,2′,3,4-tetrahydro-2H-[1,5′-biquinolin]-7 yl)sulfonyl)acetamide] |

Same assay, conditions: BRD4 FL, compound at 10 μM; read-out: % Inhibition (10 μM)

| inhibition at 10 µM | Structure (SMILES) |
| --- | --- |
| 12% | Cc1cc2c(N3CCCc4cc(-c5cnn(C)c5)c(C(F)F)cc43)nc(-n3ccnc3)cc2n(C)c1=O [Example 204] |
| 26% | Cc1cc2c(N3CCN(C)c4cc(C5CCOC5)ncc43)cc(N3CCOCC3)cc2n(C)c1=O (stereo not drawn) [Example 137] |
| 33% | COc1cc(N2CCN(C)c3cc(N4CCCC(NC(C)=O)C4)ncc32)c2cc(C)c(=O)n(C)c2c1 (stereo not drawn) [Example 122] |
| 43% | Cc1cc2c(N3CCN(C)c4cc(N5CCCCC5)ncc43)cc(N3CCOCC3)cc2n(C)c1=O [Example 139] |

Same assay, conditions: BRD4 FL, dose-response; read-out: IC50 (group A, B, C)

| IC50 | Structure (SMILES) |
| --- | --- |
| 2.01 to 5 µM | Cc1cc2c(N3CCN(C)c4cc(C5CC5)ncc43)cc(N3CCOCC3)cc2n(C)c1=O [Example 138] |
| 2.01 to 5 µM | COc1cc(N2CCCc3ccc(NC(C)=O)cc32)c2cc(C)c(=O)n(C)c2c1 [Example 196, N-(7′-methoxy-1′,3′-dimethyl-2′-oxo-1′,2′,3,4-tetrahydro-2H-[1,5′-biquinolin]-7-yl)acetamide] |
| 2.01 to 5 µM | Cc1cc2c(N3CCN(C)c4ccc(S(N)(=O)=O)cc43)cc(N3CC[C@@H](O)C3)cc2n(C)c1=O [Example 92, (R)-4-(7-(3-Hydroxypyrrolidin-1-yl)-1,3-dimethyl-2-oxo-1,2-dihydroquinolin-5-yl)-1-methyl-1,2,3,4-tetrahydroquinoxaline-6-sulfonamide] |

Each compound was assayed against T2, recombinant CREBBP bromodomain (Homo sapiens, UniProt Q92793) (assay: CBP TR-FRET displacement assay). Conditions: compound at 10 μM.
T2 construct: recombinant CREBBP bromodomain obtained from BPS Bioscience, USA; purchased BPS Bioscience, USA
Type: binding
Method: The potency of compounds to inhibit CREBBP enzyme was tested in a TR-FRET displacement assay using recombinant CREBBP bromodomain obtained from BPS Bioscience, USA. The assay buffer was 50 mM HEPES (pH 7.5), 50 mM NaCl, 0.008% Brij 35, 0.01% BSA, 1 mM TCEP. 50 nM of CREBBP & 500 nM of Biotinylated ligand was incubated at room temperature for 30 minutes, the reaction was initiated by adding pre-incubated enzyme ligand mixture to the test compounds. After 60 min incubation, the reaction was stopped by the addition of stop mix containing 1 nM of LANCE Europium-anti-6xHis antibody (Perkin Elmer, USA) and 40 nM of Sure Light Allophycocyanin-Streptavidin (Perkin Elmer, USA). Fluorescence emission of the samples at 665 and 615 nm were measured at an excitation of 340 nm and their ratio was plotted against the compound concentrations to generate dose-response curve. The percent inhibition of the test compounds is calculated using the ratio of enzyme activity controls.
elected compounds of the present invention were screened in the above-mentioned assay procedures and IC50 values were determined by fitting the dose-response data to sigmoidal curve fitting equation using Graph pad prism software V7.

T2 sequence (Q92793 1085-1192 limits assumed): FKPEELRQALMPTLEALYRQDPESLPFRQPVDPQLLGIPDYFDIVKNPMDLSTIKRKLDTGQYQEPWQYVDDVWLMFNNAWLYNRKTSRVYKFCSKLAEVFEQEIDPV

| inhibition at 10 µM | Structure (SMILES) |
| --- | --- |
| 91% | Cc1cc2c(N3CCN(C)c4cc(-c5cnn(C)c5)c(CO)cc43)cccc2[nH]c1=O [Example 58, 5-(7-(Hydroxymethyl)-4-methyl-6-(1-methyl-1H-pyrazol-4-yl)-3,4-dihydroquinoxalin-1(2H)-yl)-3-methylquinolin-2(1H)-one] |

Same assay, conditions: dose-response, read-out: IC50 (group A, B, C)

| IC50 | Structure (SMILES) |
| --- | --- |
| < 0.05 µM | Cc1cc2c(N3CCCc4cc(-c5cnn(C)c5)ncc43)cc(N3CCOCC3)cc2n(C)c1=O [Example 169] |
| 0.051 to 0.1 µM | Cc1cc2c(N3CCN(C)c4cc(-c5cnn(C)c5)ncc43)cc(C3CCOCC3)cc2n(C)c1=O [Example 143] |
| < 0.05 µM | COc1cc(N2CCN(C)c3cc(-c4cnn(C)c4)c(S(N)(=O)=O)cc32)c2cc(C)c(=O)n(C)c2c1 [Example 90] |
| > 0.01 µM | Cc1cc2c(N3CCN(C)c4ccc(S(N)(=O)=O)cc43)cc(OC(F)F)cc2n(C)c1=O [Example 97] |
| < 0.05 µM | Cc1cc2c(N3CCSc4cc(-c5cnn(C)c5)ncc43)cc(N3CCOCC3)cc2n(C)c1=O [Example 171] |
| 0.051 to 0.1 µM | Cc1cc2c(N3CCN(C)c4cc(-c5cnn(C)c5)c(CO)cc43)cccc2[nH]c1=O [Example 58, 5-(7-(Hydroxymethyl)-4-methyl-6-(1-methyl-1H-pyrazol-4-yl)-3,4-dihydroquinoxalin-1(2H)-yl)-3-methylquinolin-2(1H)-one] |
| < 0.05 µM | Cc1cc2c(N3CCN(C)c4cc(-c5cnn(C)c5)ncc43)cc(C3CCOC3)cc2n(C)c1=O (stereo not drawn) [Example 142] |
| > 0.01 µM | Cc1cc2c(N3CCN(C)c4cc(C5=CCN(C)CC5)ccc43)cccc2n(C)c1=O [Example 44] |
| < 0.05 µM | Cc1cc2c(N3CCCc4cc(-c5cnn(C)c5)c(O)cc43)nc(C3CCOCC3)cc2n(C)c1=O [Example 244, 5-(7-Hydroxy-6-(1-methyl-1H-pyrazol-4-yl)-3,4-dihydroquinolin-1(2H)-yl)-1,3-dimethyl-7-(tetrahydro-2H-pyran-4-yl)-1,6-naphthyridin-2(1H)-one] |
| > 0.01 µM | COc1cc(N2CCN(C)c3cc(S(N)(=O)=O)ccc32)c2cc(C)c(=O)n(C)c2c1 [Example 114, 1-(7-Methoxy-1,3-dimethyl-2-oxo-1,2-dihydroquinolin-5-yl)-4-methyl-1,2,3,4-tetrahydroquinoxaline-6-sulfonamide] |
| < 0.05 µM | COc1cc(N2CCN(C)c3cc(C4CC4)c(S(=O)(=O)NC(C)=O)cc32)c2cc(C)c(=O)n(C)c2c1 [Example 109] |
| 0.051 to 0.1 µM | CC(=O)N1CCN(c2cc3c(cc2C(F)F)N(c2cc(N4CCOCC4)cc4c2cc(C)c(=O)n4C)CCC3)CC1 [Example 174, 6-(4-Acetylpiperazin-1-yl)-7-(difluoromethyl)-1′,3′-dimethyl-7′-morpholino-3,4-dihydro-2H-[1,5′-biquinolin]-2′(1′H)-one] |
| > 0.01 µM | COc1cc(N2CC(=O)N(C)c3ccc(S(N)(=O)=O)cc32)c2cc(C)c(=O)n(C)c2c1 [Example 89] |
| 0.051 to 0.1 µM | COc1cc2c(cc1-c1cnn(C)c1)C(C)CCN2c1nc(C2CCOCC2)cc2c1cc(C)c(=O)n2C (stereo not drawn) [Example 239] |
| 0.051 to 0.1 µM | Cc1cc2c(N3CCCc4cc(C5CCCO5)c(C(F)F)cc43)nc(N3CC[C@@H](O)C3)cc2n(C)c1=O (stereo partly drawn) [Example 227] |
| 0.051 to 0.1 µM | COc1cc(N2CC(=O)Nc3cc(-c4cnn(C)c4)c(F)cc32)c2cc(C)c(=O)n(C)c2c1 [Example 55] |
| 0.051 to 0.1 µM | COc1cc2c(cc1-c1cnn(C)c1)CCCN2c1nc(N2CCC(S(N)(=O)=O)C2)cc2c1cc(C)c(=O)n2C (stereo not drawn) [Example 246, 1-(5-(7-Methoxy-6-(1-methyl-1H-pyrazol-4-yl)-3,4-dihydroquinolin-1(2H)-yl)-1,3-dimethyl-2-oxo-1,2-dihydro-1,6-naphthyridin-7-yl)pyrrolidine-3-sulfonamide] |
| > 0.01 µM | CNC(=O)N1CCN(c2cccc3c2cc(C)c(=O)n3C)c2ccc(-c3cnn(C)c3)cc21 [Example 75, 4-(1,3-Dimethyl-2-oxo-1,2-dihydroquinolin-5-yl)-N-methyl-7-(1-methyl-1H-pyrazol-4-yl)-3,4-dihydroquinoxaline-1(2H)-carboxamide] |

| IC50 | Structure (SMILES) |
| --- | --- |
| < 0.05 µM | Cc1cc2c(N3CCN(C)c4cc(-c5cnn(C)c5)c(C#N)cc43)cc(N3CCOCC3)cc2n(C)c1=O [Example 47] |
| < 0.05 µM | Cc1cc2c(N3CCN(C)c4cc(-c5ccsc5)ncc43)cc(N3CCOCC3)cc2n(C)c1=O [Example 140] |
| < 0.05 µM | Cc1cc2c(N3CCCc4cc(-c5cnn(C)c5)c(C(F)F)cc43)nc(N3CCN(C)CC3)cc2n(C)c1=O [Example 223] |
| < 0.05 µM | CC(=O)NC1CCN(c2cc3c(cc(C)c(=O)n3C)c(N3CCCc4cc(-c5cnn(C)c5)c(C(F)F)cc43)n2)C1 (stereo not drawn) [Example 216] |
| 0.051 to 0.1 µM | CNC(=O)c1ccc(-c2ccc3c(c2)CCCN3c2cc(OC)cc3c2cc(C)c(=O)n3C)cn1 [Example 186] |
| > 0.01 µM | COc1cc(N2CCN(C)c3ccc(S(=O)(=O)NC(=O)C(C)(C)C)cc32)c2cc(C)c(=O)n(C)c2c1 [Example 111] |
| < 0.05 µM | COC(=O)c1cc2c(cc1-c1cnn(C)c1)N(C)CCN2c1cc(OC)cc2c1cc(C)c(=O)n2C [Example 34] |
| > 0.01 µM | COc1cc(N2CCc3cccc(-c4cnn(C)c4)c3C2)c2cc(C)c(=O)n(C)c2c1 [Example 189] |
| 0.051 to 0.1 µM | COc1cc2c(cc1-c1cnn(C)c1)CCCN2c1nc(N2CCC(O)C2)cc2c1cc(C)c(=O)n2C (stereo not drawn) [Example 232] |
| 0.051 to 0.1 µM | Cc1cc2c(N3CCN(C)c4cc(-c5cnn(C)c5)ncc43)cc(OCCN3CCOCC3)cc2n(C)c1=O [Example 128] |
| < 0.05 µM | Cc1cc2c(N3CCCc4cc(-c5cnn(C)c5)c(C(F)F)cc43)nc(N3CC(O)C(O)C3)cc2n(C)c1=O (stereo not drawn) [Example 213] |
| < 0.05 µM | Cc1cc2c(N3CCN(C)c4cc(-c5cnn(C)c5)ncc43)cc(OC3CCOCC3)cc2n(C)c1=O [Example 158] |
| < 0.05 µM | COc1cc2c(cc1-c1cnn(C)c1)CCCN2c1nc(C2CCOCC2)cc2c1cc(C)c(=O)n2C [Example 238] |
| < 0.05 µM | COc1cc(N2CCN(C)c3cc(-c4ccncc4)c(C#N)cc32)c2cc(C)c(=O)n(C)c2c1 [Example 21] |
| 0.051 to 0.1 µM | COc1cc(N2CCN(C(C)=O)c3cc(-c4cnn(C)c4)c(C#N)cc32)c2cc(C)c(=O)n(C)c2c1 [Example 63, 1-acetyl-4-(7-methoxy-1,3-dimethyl-2-oxo-1,2-dihydroquinolin-5-yl)-7-(1-methyl-1H-pyrazol-4-yl)-1,2,3,4-tetrahydroquinoxaline-6-carbonitrile] |
| > 0.01 µM | CNC(=O)C1CCN(c2ccc3c(c2)CCCN3c2cc(OC)cc3c2cc(C)c(=O)n3C)CC1 [Example 187] |
| > 0.01 µM | COc1cc(N2CCCc3cc(N4CCN(C(C)=O)CC4)ccc32)c2cc(C)c(=O)n(C)c2c1 [Example 185] |
| < 0.05 µM | COc1cc(N2CCN(C)c3cc(N4CCC(NC(C)=O)CC4)c(C#N)cc32)c2cc(C)c(=O)n(C)c2c1 [Example 56] |
